Source: patent US4528287A, “6-Fluoro-1, 4-dihydro-4-oxo-7-substituted piperazinylquinoline-3-carboxylic acids and the method for preparing the same” (priority 1983, dated 1985)
Converted amounts (≈) assume the structure as drawn. Read-outs that look alike come from different tables or passages of the source.

Key:
[1] = Urinary excretion in rats after oral dosing (bioassay with Escherichia coli NIHJ-JC-2); type: in vivo, SD strain); conditions: rat, male SD rats, 20 mg/Kg per os, fasted 24 hr
Experimental: Male rats of SD strain, weighing 180-210 g, were used 8 animals at a group. Test compounds suspended in 0.5% carboxymethyl cellulose were administered per os to 24 hr-fasted rats at dose of 20 mg/Kg. Urine was pooled from 0 to 6 hrs. and 6 to 24 hrs, and urinary excretion was measured by bioassay using Escherichia coli NIHJ-JC-2.
The assay method employed was the cup-plate method using
Escherichia coli NIHJ-JC-2. Urine was appropriately diluted with 1/15M phosphate buffer pH7.0, before assay if necessary. Standard calibration lines were made in 1/15M phosphate buffer pH7.0.

in vivo = conditions: mouse, male ddY mice, 10 days
Experimental: Male mice of ddY strain, 4 weeks old, were used with 10 animals at a group. Test compounds suspended in 0.5% carboxymethyl cellulose were administered per os (p.o.) in mice. In the case of intraveneous (i.v.) administration, test compounds were solved in 0.1N-HCl solution and neutralized with 0.1N-NaOH solution.

[2] = system: Enterobacter aerogenes ATCC13048; test: MIC, twofold agar dilution; type: cell-based; conditions: Klebsiella aerogenes, Gram -, 10^6 cells/ml, 18 hrs, 37° C., read-out: Minimum inhibitory concentration (MIC)
Experimental: (§1) Minimum inhibitory concentrations (MIC) were determined by the twofold agar dilution method (Chemotherapy, 29(1), 76(1981)). Overnight cultures in Mueller-Hinton broth were suspended by buffered saline gelatine. One loopful of the bacterial suspension (10^6 or 10^8 colony-forming units/ml) was incubated onto the test compound-containing plates. The plates were incubated for 18 hrs. at 37° C. The MIC was the lowest concentration of the drug that inhibited visible growth.

[3] = system: Pseudomonas aeruginosa PAO7; test: MIC, twofold agar dilution; type: cell-based; conditions: Gram -, 10^6 cells/ml, 18 hrs, 37° C., read-out: Minimum inhibitory concentration (MIC)
Experimental: as §1

[4] = system: Staphylococcus aureus Terajima; test: MIC, twofold agar dilution; type: cell-based; conditions: Gram +, 10^6 cells/ml, 18 hrs, 37° C., read-out: Minimum inhibitory concentration (MIC)
Experimental: as §1

[5] = system: Escherichia coli NIHJ-JC-2; test: MIC, twofold agar dilution; type: cell-based; conditions: NIHJJC2, Gram -, 10^6 cells/ml, 18 hrs, 37° C., read-out: Minimum inhibitory concentration (MIC)
Experimental: as §1

[6] = system: Staphylococcus aureus FAD208PJC-1; test: MIC, twofold agar dilution; type: cell-based; conditions: FAD208PJC1, Gram +, 10^6 cells/ml, 18 hrs, 37° C., read-out: Minimum inhibitory concentration (MIC)
Experimental: as §1

Proteus vulgalis OX-19 = test: MIC, twofold agar dilution; type: cell-based; conditions: Gram -; 10^6 cells/ml; 18 hrs, 37° C.; read-out: Minimum inhibitory concentration (MIC)
Experimental: as §1

[7] = system: Klebsiella pneumoniae PCI-602; test: MIC, twofold agar dilution; type: cell-based; conditions: read-out: Minimum inhibitory concentration (MIC)
Experimental: as §1

Proteus rettgeri IFO3850 = test: MIC, twofold agar dilution; type: cell-based; conditions: Providencia rettgeri, Gram -, 10^6 cells/ml, 18 hrs, 37° C., read-out: Minimum inhibitory concentration (MIC)
Experimental: as §1

[8] = system: Enterobacter cloaceas 963; test: MIC, twofold agar dilution; type: cell-based; conditions: Gram -, 10^6 cells/ml, 18 hrs, 37° C., read-out: Minimum inhibitory concentration (MIC)
Experimental: as §1

Proteus morganii IFO3848 = test: MIC, twofold agar dilution; type: cell-based; conditions: Morganella morganii, Gram -, 10^6 cells/ml, 18 hrs, 37° C., read-out: Minimum inhibitory concentration (MIC)
Experimental: as §1

[9] = system: Pseudomonas aeruginosa ATCC9027; test: MIC, twofold agar dilution; type: cell-based; conditions: Gram -, 10^6 cells/ml, 18 hrs, 37° C., read-out: Minimum inhibitory concentration (MIC)
Experimental: as §1

[10] = system: Pseudomonas aeruginosa IFO3445; test: MIC, twofold agar dilution; type: cell-based; conditions: Gram -, 10^6 cells/ml, 18 hrs, 37° C., read-out: Minimum inhibitory concentration (MIC)
Experimental: as §1

[11] = system: Salmonella enteritidis G14; test: MIC, twofold agar dilution; type: cell-based; conditions: Salmonella enterica, Gram -, 10^6 cells/ml, 18 hrs, 37° C., read-out: Minimum inhibitory concentration (MIC)
Experimental: as §1

[12] = system: Pseudomonas aeruginosa NCTC10490; test: MIC, twofold agar dilution; type: cell-based; conditions: Gram -, 10^6 cells/ml, 18 hrs, 37° C., read-out: Minimum inhibitory concentration (MIC)
Experimental: as §1

[13] = system: Micrococcus luteus ATCC9341; test: MIC, twofold agar dilution; type: cell-based; conditions: Gram +, 10^6 cells/ml, 18 hrs, 37° C., read-out: Minimum inhibitory concentration (MIC)
Experimental: as §1

[14] = system: Staphylococcus aureus MS-353; test: MIC, twofold agar dilution; type: cell-based; conditions: MS353, Gram +, 10^6 cells/ml, 18 hrs, 37° C., read-out: Minimum inhibitory concentration (MIC)
Experimental: as §1

[15] = system: Salmonella schottmulleri 0006; test: MIC, twofold agar dilution; type: cell-based; conditions: Gram -, 10^6 cells/ml, 18 hrs, 37° C., read-out: Minimum inhibitory concentration (MIC)
Experimental: as §1

[16] = system: Salmonella paratyphi 1015; test: MIC, twofold agar dilution; type: cell-based; conditions: Salmonella enterica, 18 h, read-out: Minimum inhibitory concentration (MIC)
Experimental: as §1

[17] = system: Proteus mirabilis IFO3849; test: MIC, twofold agar dilution; type: cell-based; conditions: Gram -, 10^6 cells/ml, 18 hrs, 37° C., read-out: Minimum inhibitory concentration (MIC)
Experimental: as §1

Salmonella typhi 901 = test: MIC, twofold agar dilution; type: cell-based; conditions: Salmonella enterica, 18 h, read-out: Minimum inhibitory concentration (MIC)
Experimental: as §1

[18] = system: Salmonella typhimurium IID 971; test: MIC, twofold agar dilution; type: cell-based; conditions: Salmonella enterica; Gram -; 10^6 cells/ml; 18 hrs, 37° C.; read-out: Minimum inhibitory concentration (MIC)
Experimental: as §1

[19] = system: Bacillus subtilis ATCC6633; test: MIC, twofold agar dilution; type: cell-based; conditions: Gram +, 10^6 cells/ml, 18 hrs, 37° C., read-out: Minimum inhibitory concentration (MIC)
Experimental: as §1

[20] = system: Streptococcus pyogenes Cook; test: MIC, twofold agar dilution; type: cell-based; conditions: Gram +, 10^6 cells/ml, 18 hrs, 37° C., read-out: Minimum inhibitory concentration (MIC)
Experimental: as §1

[21] = system: Serratia marcescens IAM1184; test: MIC, twofold agar dilution; type: cell-based; conditions: Gram -, 10^6 cells/ml, 18 hrs, 37° C., read-out: Minimum inhibitory concentration (MIC)
Experimental: as §1

[22] = system: Escherichia coli K-12 C600; test: MIC, twofold agar dilution; type: cell-based; conditions: K12C600, Gram -, 10^6 cells/ml, 18 hrs, 37° C., read-out: Minimum inhibitory concentration (MIC)
Experimental: as §1

Proteus vulgalis HX-19 = test: MIC, twofold agar dilution; type: cell-based; conditions: Gram -; 10^6 cells/ml; 18 hrs, 37° C.; read-out: Minimum inhibitory concentration (MIC)
Experimental: as §1

For CCn1cc(C(=O)O)c(=O)c2cc(F)c(N3CCNC(C)C3)c(F)c21 (stereo not drawn) [Example 4, 1-Ethyl-6,8-difluoro-1,4-dihydro-7-(3-methyl-1-piperazinyl)-4-oxoquinoline-3-carboxylic acid], the concentration at 6 h ([1]; urine 0-6 hr, read-out: Drug Concentration in Urine 0-6 (hr)) was 659 µg/mL, the dose excreted at 24 h ([1]; urine 0-24 hr, read-out: Rate of Urinary Excretion 0-24 (hr)) was 75% and the concentration at 24 h ([1]; urine 6-24 hr, read-out: Drug Concentration in Urine 6-24 (hr)) was 87 µg/mL. The LD50 at 240 h (in vivo; iv, i.v., read-out: LD50 i.v. (95% Confidence Limit)) was 246 mg/kg, the LD50 at 240 h (in vivo; po, p.o., read-out: LD50 p.o.) was > 4000 mg/kg and the MIC [2] was 0.1 µg/mL (≈ 0.285 µM). For the same molecule, the MIC [3] was 1.56 µg/mL (≈ 4.44 µM), the MIC [4] was 0.78 µg/mL (≈ 2.22 µM) and the MIC [5] was 0.05 µg/mL (≈ 0.142 µM). The MIC [6] was 0.38 µg/mL (≈ 1.08 µM), the MIC (Proteus vulgalis OX-19) was 0.05 µg/mL (≈ 0.142 µM) and the MIC ([7]; PCI602, 18 h) was 0.0125 µg/mL (≈ 0.0356 µM). For the same molecule, the MIC (Proteus rettgeri IFO3850) was 0.05 µg/mL (≈ 0.142 µM), the MIC [8] was 0.1 µg/mL (≈ 0.285 µM) and the MIC (Proteus morganii IFO3848) was 0.025 µg/mL (≈ 0.0712 µM). For the same molecule, the MIC [9] was 0.05 µg/mL (≈ 0.142 µM), the MIC [10] was 0.78 µg/mL (≈ 2.22 µM) and the MIC [11] was 0.05 µg/mL (≈ 0.142 µM). The MIC [12] was 0.78 µg/mL (≈ 2.22 µM), the MIC [13] was 6.25 µg/mL (≈ 17.8 µM) and the MIC [14] was 0.78 µg/mL (≈ 2.22 µM). It also gave an MIC [15] of 0.025 µg/mL (≈ 0.0712 µM), an MIC [16] of 0.025 µg/mL (≈ 0.0712 µM) and an MIC [17] of 0.2 µg/mL (≈ 0.569 µM). The MIC (Salmonella typhi 901) was 0.0125 µg/mL (≈ 0.0356 µM), the MIC [18] was 0.05 µg/mL (≈ 0.142 µM) and the MIC [19] was 0.1 µg/mL (≈ 0.285 µM). The MIC [20] was 3.13 µg/mL (≈ 8.91 µM), the MIC [21] was 0.1 µg/mL (≈ 0.285 µM) and the MIC [22] was 0.05 µg/mL (≈ 0.142 µM). For the same molecule, the MIC (Proteus vulgalis HX-19) was 0.025 µg/mL (≈ 0.0712 µM).

With CCn1cc(C(=O)O)c(=O)c2cc(F)c(N3CC(C)NC(C)C3)c(F)c21 (stereo not drawn) [Example 20] the MIC [2] was 0.2 µg/mL (≈ 0.547 µM), the MIC [3] was 3.13 µg/mL (≈ 8.57 µM) and the MIC [4] was 1.56 µg/mL (≈ 4.27 µM). It also gave an MIC [5] of 0.39 µg/mL (≈ 1.07 µM), an MIC [6] of 0.78 µg/mL (≈ 2.13 µM) and an MIC (Proteus vulgalis OX-19) of 0.1 µg/mL (≈ 0.274 µM). For the same molecule, the MIC ([7]; PCI602, Gram -, 10^6 cells/ml, 18 hrs, 37° C.) was 0.2 µg/mL (≈ 0.547 µM), the MIC (Proteus rettgeri IFO3850) was 0.39 µg/mL (≈ 1.07 µM) and the MIC [8] was 0.2 µg/mL (≈ 0.547 µM). It also gave an MIC (Proteus morganii IFO3848) of 0.2 µg/mL (≈ 0.547 µM), an MIC [9] of 0.2 µg/mL (≈ 0.547 µM) and an MIC [10] of 3.13 µg/mL (≈ 8.57 µM). For the same molecule, the MIC [11] was 0.39 µg/mL (≈ 1.07 µM), the MIC [12] was 0.78 µg/mL (≈ 2.13 µM) and the MIC [13] was 12.5 µg/mL (≈ 34.2 µM). For the same molecule, the MIC [14] was 1.56 µg/mL (≈ 4.27 µM), the MIC [15] was 0.1 µg/mL (≈ 0.274 µM) and the MIC [16] was 0.1 µg/mL (≈ 0.274 µM). For the same molecule, the MIC [17] was 1.56 µg/mL (≈ 4.27 µM), the MIC (Salmonella typhi 901) was 0.1 µg/mL (≈ 0.274 µM) and the MIC [18] was 0.2 µg/mL (≈ 0.547 µM). For the same molecule, the MIC [19] was 0.2 µg/mL (≈ 0.547 µM), the MIC [20] was 6.25 µg/mL (≈ 17.1 µM) and the MIC [21] was 0.78 µg/mL (≈ 2.13 µM). For the same molecule, the MIC [22] was 0.2 µg/mL (≈ 0.547 µM) and the MIC (Proteus vulgalis HX-19) was 0.2 µg/mL (≈ 0.547 µM).
